Assay results published in PubChem BioAssay (NCI).
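These data come from cells grown in 96-well plates and exposed to compound for 48 hours at five concentrations. Definition used: TGI = concentration required for complete inhibition of growth.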

Tests used:
Test in all cases: DTP human tumour cell line panel, 48 h
786-0 renal = system: 786-0 renal
A498 renal = system: A498 renal
A549 NSCLC = system: A549 NSCLC
ACHN renal = system: ACHN renal
BT-549 breast = system: BT-549 breast
CAKI-1 renal = system: CAKI-1 renal
CCRF-CEM leukemia = system: CCRF-CEM leukemia
COLO 205 colon = system: COLO 205 colon
DU-145 prostate = system: DU-145 prostate
EKVX NSCLC = system: EKVX NSCLC
HCT-116 colon = system: HCT-116 colon
HCT-15 colon = system: HCT-15 colon
HL-60(TB) leukemia = system: HL-60(TB) leukemia
HOP-62 NSCLC = system: HOP-62 NSCLC
HOP-92 NSCLC = system: HOP-92 NSCLC
HS 578T breast = system: HS 578T breast
HT29 colon = system: HT29 colon
IGROV1 ovarian = system: IGROV1 ovarian
K-562 leukemia = system: K-562 leukemia
KM12 colon = system: KM12 colon
LOX IMVI melanoma = system: LOX IMVI melanoma
M14 melanoma = system: M14 melanoma
MALME-3M melanoma = system: MALME-3M melanoma
MCF7 breast = system: MCF7 breast
MDA-MB-231 breast = system: MDA-MB-231 breast
MDA-MB-435 = system: MDA-MB-435
MDA-N = system: MDA-N
MOLT-4 leukemia = system: MOLT-4 leukemia
NCI-H226 lung = system: NCI-H226 lung
NCI-H23 lung = system: NCI-H23 lung
NCI-H460 lung = system: NCI-H460 lung
NCI-H522 lung = system: NCI-H522 lung
NCI/ADR-RES ovarian = system: NCI/ADR-RES ovarian
OVCAR-3 ovarian = system: OVCAR-3 ovarian
OVCAR-4 ovarian = system: OVCAR-4 ovarian
OVCAR-5 ovarian = system: OVCAR-5 ovarian
OVCAR-8 ovarian = system: OVCAR-8 ovarian
PC-3 prostate = system: PC-3 prostate
RPMI-8226 leukemia = system: RPMI-8226 leukemia
RXF 393 renal = system: RXF 393 renal
SF-268 CNS = system: SF-268 CNS
SF-295 CNS = system: SF-295 CNS
SF-539 CNS = system: SF-539 CNS
SK-MEL-2 melanoma = system: SK-MEL-2 melanoma
SK-MEL-28 melanoma = system: SK-MEL-28 melanoma
SK-MEL-5 melanoma = system: SK-MEL-5 melanoma
SK-OV-3 ovarian = system: SK-OV-3 ovarian
SN12C renal = system: SN12C renal
SNB-19 CNS = system: SNB-19 CNS
SR leukemia = system: SR leukemia
SW-620 colon = system: SW-620 colon
T-47D breast = system: T-47D breast
TK-10 renal = system: TK-10 renal
U251 CNS = system: U251 CNS
UACC-257 melanoma = system: UACC-257 melanoma
UACC-62 melanoma = system: UACC-62 melanoma
UO-31 renal = system: UO-31 renal
HCC-2998 colon = system: HCC-2998 colon
SNB-75 CNS = system: SNB-75 CNS

SMILES: N#CC(C#N)=NNc1ccc2cn[nH]c2c1
- TGI (786-0 renal): > 100 µM
- TGI (A498 renal): > 100 µM
- TGI (A549 NSCLC): > 100 µM
- TGI (ACHN renal): > 100 µM
- TGI (BT-549 breast): > 100 µM
- TGI (CAKI-1 renal): 96.4 µM
- TGI (CCRF-CEM leukemia): 55 µM
- TGI (COLO 205 colon): > 100 µM
- TGI (DU-145 prostate): 82.9 µM
- TGI (EKVX NSCLC): > 100 µM
- TGI (HCT-116 colon): 44.7 µM
- TGI (HCT-15 colon): > 100 µM
- TGI (HL-60(TB) leukemia): 45.3 µM
- TGI (HOP-62 NSCLC): > 100 µM
- TGI (HOP-92 NSCLC): > 100 µM
- TGI (HS 578T breast): > 100 µM
- TGI (HT29 colon): > 100 µM
- TGI (IGROV1 ovarian): > 100 µM
- TGI (K-562 leukemia): > 100 µM
- TGI (KM12 colon): > 100 µM
- TGI (LOX IMVI melanoma): > 100 µM
- TGI (M14 melanoma): > 100 µM
- TGI (MALME-3M melanoma): 69.5 µM
- TGI (MCF7 breast): > 100 µM
- TGI (MDA-MB-231 breast): > 100 µM
- TGI (MDA-MB-435): > 100 µM
- TGI (MDA-N): > 100 µM
- TGI (MOLT-4 leukemia): 54.2 µM
- TGI (NCI-H226 lung): > 100 µM
- TGI (NCI-H23 lung): 50 µM
- TGI (NCI-H460 lung): > 100 µM
- TGI (NCI-H522 lung): 34.8 µM
- TGI (NCI/ADR-RES ovarian): > 100 µM
- TGI (OVCAR-3 ovarian): 76.1 µM
- TGI (OVCAR-4 ovarian): > 100 µM
- TGI (OVCAR-5 ovarian): > 100 µM
- TGI (OVCAR-8 ovarian): > 100 µM
- TGI (PC-3 prostate): > 100 µM
- TGI (RPMI-8226 leukemia): 65.4 µM
- TGI (RXF 393 renal): 55.4 µM
- TGI (SF-268 CNS): > 100 µM
- TGI (SF-295 CNS): > 100 µM
- TGI (SF-539 CNS): > 100 µM
- TGI (SK-MEL-2 melanoma): > 100 µM
- TGI (SK-MEL-28 melanoma): > 100 µM
- TGI (SK-MEL-5 melanoma): > 100 µM
- TGI (SK-OV-3 ovarian): > 100 µM
- TGI (SN12C renal): 92.3 µM
- TGI (SNB-19 CNS): > 100 µM
- TGI (SR leukemia): 55.5 µM
- TGI (SW-620 colon): > 100 µM
- TGI (T-47D breast): > 100 µM
- TGI (TK-10 renal): 76.1 µM
- TGI (U251 CNS): > 100 µM
- TGI (UACC-257 melanoma): 60.2 µM
- TGI (UACC-62 melanoma): > 100 µM
- TGI (UO-31 renal): 28.1 µM

SMILES: O=C1c2ccccc2C(=O)N1n1c(Cc2ccc(Cl)cc2)n[nH]c1=O
- TGI (786-0 renal): > 100 µM
- TGI (A498 renal): > 100 µM
- TGI (A549 NSCLC): > 100 µM
- TGI (ACHN renal): > 100 µM
- TGI (BT-549 breast): > 100 µM
- TGI (CAKI-1 renal): > 100 µM
- TGI (CCRF-CEM leukemia): > 100 µM
- TGI (COLO 205 colon): > 100 µM
- TGI (DU-145 prostate): > 100 µM
- TGI (EKVX NSCLC): > 100 µM
- TGI (HCC-2998 colon): > 100 µM
- TGI (HCT-116 colon): > 100 µM
- TGI (HCT-15 colon): > 100 µM
- TGI (HOP-62 NSCLC): > 100 µM
- TGI (HOP-92 NSCLC): > 100 µM
- TGI (HS 578T breast): > 100 µM
- TGI (HT29 colon): > 100 µM
- TGI (IGROV1 ovarian): > 100 µM
- TGI (K-562 leukemia): > 100 µM
- TGI (KM12 colon): > 100 µM
- TGI (LOX IMVI melanoma): > 100 µM
- TGI (M14 melanoma): > 100 µM
- TGI (MALME-3M melanoma): > 100 µM
- TGI (MCF7 breast): > 100 µM
- TGI (MDA-MB-231 breast): > 100 µM
- TGI (MDA-MB-435): > 100 µM
- TGI (MDA-N): > 100 µM
- TGI (MOLT-4 leukemia): > 100 µM
- TGI (NCI-H226 lung): > 100 µM
- TGI (NCI-H23 lung): > 100 µM
- TGI (NCI-H460 lung): > 100 µM
- TGI (NCI/ADR-RES ovarian): > 100 µM
- TGI (OVCAR-3 ovarian): > 100 µM
- TGI (OVCAR-4 ovarian): > 100 µM
- TGI (OVCAR-5 ovarian): > 100 µM
- TGI (OVCAR-8 ovarian): > 100 µM
- TGI (PC-3 prostate): > 100 µM
- TGI (SF-295 CNS): > 100 µM
- TGI (SF-539 CNS): > 100 µM
- TGI (SK-MEL-2 melanoma): > 100 µM
- TGI (SK-MEL-28 melanoma): > 100 µM
- TGI (SK-MEL-5 melanoma): > 100 µM
- TGI (SN12C renal): > 100 µM
- TGI (SNB-19 CNS): > 100 µM
- TGI (SNB-75 CNS): > 100 µM
- TGI (SR leukemia): > 100 µM
- TGI (SW-620 colon): > 100 µM
- TGI (T-47D breast): > 100 µM
- TGI (TK-10 renal): > 100 µM
- TGI (U251 CNS): > 100 µM
- TGI (UACC-257 melanoma): > 100 µM
- TGI (UACC-62 melanoma): > 100 µM
- TGI (UO-31 renal): > 100 µM
